According to patent publication US6737058B2, “Methods for inhibiting endothelial cell and fibrinogen mediated inflammation using fibrinogen specific antibodies” (The Scripps Research Institute, priority 1992, dated 2004):

Key:
HUVEC [1] = assay: 125I-labelled fibrinogen binding to HUVEC monolayers, dose dependency; design: species or system human; details: monolayers of unstimulated HUVEC, 22° C., 45 minutes, 2.5 mM CaCl2
Protocol: Fibrinogen was iodinated using the Iodogen™ method. Briefly, Iodogen™ was dissolved in dichloromethane for a final concentration of 1 μg/ml and 170 μl of dissolved Iodogen™ that was dried in the bottom of a glass tube. Fibrinogen, prepared in Example 1A, was resuspended in 0.055 M sodium citrate buffer, pH 7.4, for a final concentration of 5 μg/ml. Two hundred μl of dissolved fibrinogen solution was placed into the Iodogen™-coated tube with 700 μCi of carrier-free sodium iodide. The admixture was maintained on ice for 20 minutes with occasional agitation. To stop the iodination reaction, the admixture was removed from the tube and gel filtered on a […]™ G-25 coarse column (100×2.5). Fractions of iodinated fibrinogen were determined by trichloroacetic acid precipitable counts. The labelled fibrinogen produced was radiolabelled to a specific activity of 0.3 μCi/μg of protein. Labelled fibrinogen was used in the binding and inhibition of binding assays described herein at a concentration of 50 μg/ml whereas unlabelled fibrinogen was generally used at a concentration of 500 μg/ml. […]
The resultant admixtures were maintained at 22° C. for 45 minutes to allow for fibrinogen to bind to the plated HUVEC. […] The cells were then solubilized in 10% SDS and the radioactivity associated under the maintenance conditions was quantitated in a gamma counter.

[2] = system: TNF or LPS-stimulated HUVEC; assay: 125I-labelled fibrinogen binding to TNF- or LPS-stimulated HUVEC; design: species or system human; details: TNF 5 ng/ml or LPS 1.0 μg/ml, 4 hours at 37° C.
Protocol: To determine the effect that known stimulators of HUVEC have on the binding characteristics of fibrinogen to HUVEC, dose-response experiments were performed as described in Example 3A2) on untreated HUVEC and TNF or lipopolysaccharide (LPS, Genzyme))-stimulated HUVEC. TNF and LPS were separately admixed at the respective concentrations of 5 nanograms (ng)/ml and 1.0 μg/ml to monolayers of HUVEC and maintained at 37° C. for 4 hours prior to the admixture of the labelled fibrinogen ranging in concentration from 0.01 μM up to 0.36 μM.

[3] = system: bovine aortic endothelial cells (BAE); assay: Fibrinogen-mediated adhesion of 51Cr-labelled THP-1 cells to bovine aortic endothelial cells; assay type: cell-based; details: 500 μg/ml fibrinogen
Protocol: Cell adhesion binding assays described above were performed on bovine aortic endothelial cells (BAE) to determine if fibrinogen could mediate the binding of ^51Cr-labelled THP-1 cells to endothelial cells from a different source. Cell cultures were prepared from bovine aorta following procedures known to one skilled in the art. THP-1 cells were either left untreated or treated with 500 μg/ml fibrinogen over a 60 minute time course. At selected time points, the cells were harvested as described in Example 3B1) and the number of attached THP-1 cells were determined as previously described. […] However, in the presence of fibrinogen, approximately 20,000 cells bound to BAE cells after a 40 minute maintenance period. This maximum binding dropped off at 60 minutes to approximately 15,000 attached cells. Binding of THP-1 cells to HUVEC was done in parallel as a control for the experiment; the non-saturable binding of THP-1 cells in the presence of fibrinogen was maximal at 60 minutes with approximately 25,000 cells attached. Thus, fibrinogen mediates the binding of THP-1 cells not only to human endothelial cells but also to bovine-derived endothelial cells.

HUVEC [4] = assay: Adhesion of terminally-differentiated 51Cr-labeled HL-60 cells to resting HUVEC with plasma adhesive proteins; assay type: cell-based, human; details: 150 μ/ml protein, fMLP 10 μM, 30 min at 22° C.
Protocol: The effect of fibrinogen, vitronectin, and fibronectin on the interaction of terminally-differentiated HL-60 and monocytic THP-1 cells with HUVEC was determined as described in Languino, supra. Briefly, serum-free suspensions of HL-60 or THP-1 cells were labeled with ^51Cr as described in Example 81A to a final incorporation of 0.2-4 cpm/cell. After washes in PBS, pH 7.2, aliquots of the HL-60 cells were resuspended in serum-free RPMI 1640 at 1.5×10^6/ml and stimulated with 10 μM of the chemoattractant formyl-methionyl-leucyl-phenylalanine (fMLP, Sigma, St. Louis, Mo.) and equilibrated with 150 μ/ml fibrinogen, vitronectin, or fibronectin in the presence of 1 mM CaCl2 for 20 min at 22° C. Equilibrated HL-60 were added to resting HUVEC monolayers that had been previously incubated with fresh complete culture medium 12 hours prior to the experiment and incubated for an additional 30 min at 22° C., washed,solubilized in 10-20% SDS, and associated radioactivity determined in a scintillation β-counter. The number of attached cells was quantitated by diving the cpm harvested by the cpm/cell. Under these experimental conditions, there was no aggregation of the various leukocyte subpopulations in the presence of the different plasma adhesive proteins, nor disruption of the HUVEC monolayers at any time interval tested, as judged by routine microscopic examination of the adhesion field. Data are the mean ± S.D. of triplicates from a representative experiment.
Experimental conditions were the same as described in Example 9C1 except that the ^51Cr-labeled HL-60 cells were equilibrated with 40 μg/ml vitronectin or control protein transferrin and added to resting HUVEC for increasing time intervals between 10 and 60 minutes at 22° C. before measurement of leukocyte adhesion.
Experimental conditions were the same as described in Example 9C1 except that the ^51Cr-labeled HL-60 cells were equilibrated with several concentrations of vitronectin ranging from 1.84 to 150 μg/ml and prior to incubation to resting HUVEC.

concentration at which 125I-labelled fibrinogen binds saturably (HUVEC [1]): approximately 0.36 μM
Substance: fibrinogen: fibrinogen isolated from fresh plasma by cold ethanol fractionation, fibronectin-free
labelled fibrinogen molecules bound per cell in comparison to unstimulated cells [2]: doubled | THP-1 cells bound to BAE cells ([3]; 40 minutes): approximately 20,000 cells | THP-1 cells bound to BAE cells ([3]; 60 minutes): approximately 15,000 cells | adhesion of differentiated HL-60 cells to HUVEC relative to cells not equilibrated with an adhesive protein (HUVEC [4]): two to three-fold higher
